Results from patent publication US11919905B2, “Substituted benzo[f]imidazo[1,2-a][1,4]diazepines as anesthetics” (HANGZHOU ADAMERCK PHARMLABS INC., priority 2017, dated 2024).

Assays:
[1] = test system: ICR mice; assay: Effective dose and lethal dose of intravenous administration in mice; assay type: in vivo
Experimental: ICR mice (males, 18-25 g) were randomly grouped and were fast given a single bolus of different doses of test drug via the tail vein, and the lowest dose causing the righting reflex to disappear (effective dose) and the dose causing animal death (lethal dose) were recorded, and the treatment windows (lethal dose/effective dose) were calculated.

[2] = test system: ICR mice; assay: Disappearance of righting reflex in mice induced by drugs (single i.v. bolus); assay type: in vivo; details: 100 mg/kg single bolus via tail vein, male ICR mice
Experimental: After ICR mice (male, 18-25 g) were fast injected with the same dose (100 mg/kg) of the test drug in a single bolus via the tail vein, the incubation period and the duration of disappearance of the righting reflex in mice were recorded. Wherein, the incubation period refers to the time from the start of administration to the disappearance of the animal's righting reflex, and the duration refers to the time from the disappearance of the righting reflex to the recovery.

[3] = background statement; cited from earlier work
[4] = test system: mice; assay: Multiple (10 times) i.v. administrations: autonomous activity of mice; assay type: in vivo
Experimental: Animals in each group were given the corresponding drug solution multiple times by the tail vein injection (i.v.) in accordance with the corresponding group, 0.1 ml per mouse each time, for ten times of consecutive injections (the administration group mice were injected when the righting reflex was recovered). Then the autonomous activity of mice was measured immediately and the recording time was 50 minutes. Data were expressed as mean±standard deviation.

[5] = test system: mice; assay: Multiple (9 times) i.v. administrations: duration of disappearance of righting reflex in mice; assay type: in vivo
Experimental: Animals in each group were given the corresponding drug solution multiple times by the tail vein injection (i.v.) in accordance with the corresponding group, 0.1 ml per mouse each time, for 9 times of consecutive injections (the administration group mice were injected when the righting reflex was recovered). The durations of each disappearance of righting reflex were recorded, and the data was expressed as an average.

[6] = test system: mice; assay: Single i.v. administration: autonomous activity of mice; assay type: in vivo
Experimental: Animals in each group were tested for their autonomous activities, each mouse for 10 minutes. After that, the animals in each group were given a single corresponding drug solution by the tail vein injection (i.v.) according to the corresponding group, 0.1 ml per 10 g body weight, and the autonomous activity of the mice was measured immediately after the administration, and the recording time was 50 min. Data were expressed as mean±standard deviation. Wherein, the dosage of propofol was 20 mg/kg.

[7] = single bolus via tail vein, male ICR mice
[8] = 50 mg/kg i.v., administration 1
[9] = 50 mg/kg i.v., administration 2
[10] = 50 mg/kg i.v., administration 3
[11] = 50 mg/kg i.v., administration 4
[12] = 50 mg/kg i.v., administration 5
[13] = 50 mg/kg i.v., administration 6
[14] = 50 mg/kg i.v., administration 7
[15] = 50 mg/kg i.v., administration 8
[16] = 50 mg/kg i.v., administration 9
[17] = 75 mg/kg i.v., administration 1
[18] = 75 mg/kg i.v., administration 2
[19] = 75 mg/kg i.v., administration 3
[20] = 75 mg/kg i.v., administration 4
[21] = 75 mg/kg i.v., administration 5
[22] = 75 mg/kg i.v., administration 6
[23] = 75 mg/kg i.v., administration 7
[24] = 75 mg/kg i.v., administration 8
[25] = 75 mg/kg i.v., administration 9
[26] = 100 mg/kg i.v., administration 1
[27] = 100 mg/kg i.v., administration 2
[28] = 100 mg/kg i.v., administration 3
[29] = 100 mg/kg i.v., administration 4
[30] = 100 mg/kg i.v., administration 5
[31] = 100 mg/kg i.v., administration 6
[32] = 100 mg/kg i.v., administration 7
[33] = 100 mg/kg i.v., administration 8
[34] = 100 mg/kg i.v., administration 9

## COC(=O)CC[C@@H]1N=C(c2ccccn2)c2cc(Br)ccc2-n2c(C)cnc21.O=S(=O)(O)c1ccccc1 [Remimazolam (besylate), Remimazolam, reference compound]
[1]; [7]
  Effective dose (lowest dose causing the righting reflex to disappear): 60 mg/kg
  Lethal dose (dose causing animal death): 280 mg/kg
  Treatment window (lethal dose/effective dose): 4.6
[2]
  Duration (time from disappearance of righting reflex to recovery): 10.61 min
  Incubation period (time from start of administration to disappearance of righting reflex): 0.64 min
[3]
  side effects in preclinical animal experiments: limb jitters, head tilting, opisthotonus

## COC(=O)CC[C@@H]1N=C(c2ccccn2)c2cc(F)c(C)cc2-n2c(C)cnc21.Cc1ccc(S(=O)(=O)O)cc1 [Compound 1-2]
[4]; 10 consecutive i.v. injections, 50 mg/kg
  time after administration until autonomous activity returned to normal levels: 15 to 20 min
[4]; 10 consecutive i.v. injections, 100 mg/kg, test period 50 minutes
  return of autonomous activity to normal levels: did not return to normal levels during the test period
[4]; multiple i.v. administrations, vs propofol
  recovery of the number of autonomous activities and the rest time after multiple administrations: better than that of propofol
[1]; Mus musculus, iv, single bolus via tail vein, male ICR mice, read-out: Effective dose (lowest dose causing the righting reflex to disappear)
  minimal effective dose: 40 mg/kg
[1]; mice, i.v.
  effective dose reduced, compared to remimazolam (p-toluenesulfonate): 33.3%
  lethal dose increased, compared to remimazolam (p-toluenesulfonate): 64%
  treatment window increased, compared to remimazolam (p-toluenesulfonate): 2.5 times
[1]; [7]
  Lethal dose (dose causing animal death): 360 mg/kg
  Treatment window (lethal dose/effective dose): 9
[5]; [8]
  Percentage of extension of righting reflex disappearance: 100%
  righting reflex disappearance time: 2.5 min
[5]; [9]
  Percentage of extension of righting reflex disappearance: 179%
  righting reflex disappearance time: 4.4 min
[5]; [10]
  Percentage of extension of righting reflex disappearance: 192%
  righting reflex disappearance time: 4.8 min
[5]; [11]
  Percentage of extension of righting reflex disappearance: 227%
  righting reflex disappearance time: 5.6 min
[5]; [12]
  Percentage of extension of righting reflex disappearance: 237%
  righting reflex disappearance time: 5.9 min
[5]; [13]
  Percentage of extension of righting reflex disappearance: 208%
  righting reflex disappearance time: 5.2 min
[5]; [14]
  Percentage of extension of righting reflex disappearance: 268%
  righting reflex disappearance time: 6.6 min
[5]; [15]
  Percentage of extension of righting reflex disappearance: 260%
  righting reflex disappearance time: 6.5 min
[5]; [16]
  Percentage of extension of righting reflex disappearance: 268%
  righting reflex disappearance time: 6.6 min
[5]; 75 mg/kg dose group, after 6-7 administrations, vs propofol 20 mg/kg
  disappearance time of righting reflex as share of that of the propofol group: 65-70%
[5]; [17]
  Percentage of extension of righting reflex disappearance: 100%
  righting reflex disappearance time: 5.3 min
[5]; [18]
  Percentage of extension of righting reflex disappearance: 128%
  righting reflex disappearance time: 6.7 min
[5]; [19]
  Percentage of extension of righting reflex disappearance: 159%
  righting reflex disappearance time: 8.4 min
[5]; [20]
  Percentage of extension of righting reflex disappearance: 173%
  righting reflex disappearance time: 9.1 min
[5]; [21]
  Percentage of extension of righting reflex disappearance: 194%
  righting reflex disappearance time: 10.2 min
[5]; [22]
  Percentage of extension of righting reflex disappearance: 219%
  righting reflex disappearance time: 11.5 min
[5]; [23]
  Percentage of extension of righting reflex disappearance: 231%
  righting reflex disappearance time: 12.1 min
[5]; [24]
  Percentage of extension of righting reflex disappearance: 211%
  righting reflex disappearance time: 11.1 min
[5]; [25]
  Percentage of extension of righting reflex disappearance: 211%
  righting reflex disappearance time: 11.1 min
[5]; [26]
  Percentage of extension of righting reflex disappearance: 100%
  righting reflex disappearance time: 8.9 min
[5]; [27]
  Percentage of extension of righting reflex disappearance: 121%
  righting reflex disappearance time: 10.8 min
[5]; [28]
  Percentage of extension of righting reflex disappearance: 154%
  righting reflex disappearance time: 13.8 min
[5]; [29]
  Percentage of extension of righting reflex disappearance: 177%
  righting reflex disappearance time: 15.8 min
[5]; [30]
  Percentage of extension of righting reflex disappearance: 181%
  righting reflex disappearance time: 16.2 min
[5]; [31]
  Percentage of extension of righting reflex disappearance: 240%
  righting reflex disappearance time: 21.5 min
[5]; [32]
  Percentage of extension of righting reflex disappearance: 234%
  righting reflex disappearance time: 20.9 min
[5]; [33]
  Percentage of extension of righting reflex disappearance: 238%
  righting reflex disappearance time: 21.2 min
[5]; [34]
  Percentage of extension of righting reflex disappearance: 236%
  righting reflex disappearance time: 21.1 min
[5]; each dose group vs propofol group
  accumulation effect (prolonged rate of righting reflex disappearance time after multiple administrations): lower than that of propofol
[5]; i.v., 50-100 mg/kg
  dose dependence of duration of righting reflex disappearance: dose-dependent
[5]; repeated i.v. administration, each dose group
  number of consecutive administrations after which duration of righting reflex disappearance reached steady state: 5-6
[2]
  Duration (time from disappearance of righting reflex to recovery): 6.02 min
  Incubation period (time from start of administration to disappearance of righting reflex): 0.52 min
[6]; single i.v. 50 mg/kg (low-dose group)
  time after administration until autonomous activity returned to normal level: 15 min
[6]; single i.v. 50 mg/kg-100 mg/kg, within 10 minutes of injection
  total distance of autonomous activity compared with blank group: significantly lower than that of the blank group
[6]; single i.v. 75 mg/kg (medium-dose group)
  time after administration until autonomous activity returned to normal level: 35 min
[6]; single i.v. 100 mg/kg (high-dose group), 50 min test period
  autonomous activity compared with blank group: consistently lower than that of the blank group during the test period

## COC(=O)CC[C@@H]1N=C(c2ccccn2)c2cc(Br)ccc2-n2c(C)cnc21.Cc1ccc(S(=O)(=O)O)cc1 [Remimazolam (p-toluenesulfonate), Remimazolam, reference compound]
[1]; [7]
  Effective dose (lowest dose causing the righting reflex to disappear): 60 mg/kg
  Lethal dose (dose causing animal death): 220 mg/kg
  Treatment window (lethal dose/effective dose): 3.6
[2]
  Duration (time from disappearance of righting reflex to recovery): 9.43 min
  Incubation period (time from start of administration to disappearance of righting reflex): 0.73 min
[3]
  side effects in preclinical animal experiments: limb jitters, head tilting, opisthotonus
